Laboratory results reported in the supplement of paper PMC10307832.

Legend:
Assay in all cases: relative viability (nuclei count vs DMSO), 5 days (fraction); higher = more cells survive
[1] = compound: CCN(CCO)CCCC(C)Nc1ccnc2cc(Cl)ccc12 [Hydroxychloroquine] + CCNC(=O)c1noc(-c2cc(C(C)C)c(O)cc2O)c1-c1ccc(CN2CCOCC2)cc1 [Luminespib] (partner 0.01 µM)
Procedure, shortened: (§1)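 Medians of duplicate plates are given as relative viability. That measure is the nuclei count in treated wells divided by the count in vehicle wells. Counts were taken on 4× images of lung cancer cell lines in 1536-well plates, 5 days after pin-tool dosing the day after seeding with one drug alone or a fixed anchor-drug dose plus five library-drug doses (not always all listed) in √10 steps.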

[2] = compound: CCN(CCO)CCCC(C)Nc1ccnc2cc(Cl)ccc12 [Hydroxychloroquine] + C[C@]1(O)C[C@@H](c2nc(-c3ccc4ccc(-c5ccccc5)nc4c3)c3c(N)nccn32)C1 [Linsitinib] (partner 1 µM)
Procedure, shortened: as §1

[3] = compound: CCN(CCO)CCCC(C)Nc1ccnc2cc(Cl)ccc12 [Hydroxychloroquine] + CS(=O)(=O)CCNCc1ccc(-c2ccc3ncnc(Nc4ccc(OCc5cccc(F)c5)c(Cl)c4)c3c2)o1 [Lapatinib] (partner 2 µM)
Procedure, shortened: as §1

[4] = compound: CCN(CCO)CCCC(C)Nc1ccnc2cc(Cl)ccc12 [Hydroxychloroquine] + COc1cccc2cc(-c3nc([C@H]4CC[C@H](C(=O)O)CC4)n4ncnc(N)c34)[nH]c12 [OSI-027] (partner 0.5 µM)
Procedure, shortened: as §1

| Cell Line | relative viability ([1]; first compound 0.5 µM) | relative viability ([1]; first compound 1.581 µM) | relative viability ([1]; first compound 5 µM) | relative viability ([1]; first compound 15.81 µM) | relative viability ([1]; first compound 50 µM) | relative viability ([2]; first compound 0.5 µM) | relative viability ([2]; first compound 1.581 µM) | relative viability ([2]; first compound 5 µM) | relative viability ([2]; first compound 15.81 µM) | relative viability ([2]; first compound 50 µM) | relative viability ([3]; first compound 0.5 µM) | relative viability ([3]; first compound 1.581 µM) | relative viability ([3]; first compound 5 µM) | relative viability ([3]; first compound 15.81 µM) | relative viability ([3]; first compound 50 µM) | relative viability ([4]; first compound 0.5 µM) | relative viability ([4]; first compound 1.581 µM) | relative viability ([4]; first compound 5 µM) | relative viability ([4]; first compound 15.81 µM) | relative viability ([4]; first compound 50 µM) |
| --- | --- | --- | --- | --- | --- | --- | --- | --- | --- | --- | --- | --- | --- | --- | --- | --- | --- | --- | --- | --- |
| HCC-827 | 0.781 | 0.629 | 0.686 | 0.522 | 0.85 | 1.01 | 0.927 | 0.922 | 0.956 | 0.977 | 0.202 | 0.222 | 0.212 | 0.183 | 0.205 | 0.802 | 0.572 | 0.821 | 1.03 | 0.763 |
| HARA | 1.15 | 1.09 | 0.789 | 0.542 | 1.01 | 1.01 | 0.993 | 0.996 | 0.997 | 0.913 | 0.712 | 0.731 | 0.597 | 0.765 | 0.635 | 0.608 | 0.416 | 0.469 | 0.486 | 0.435 |
| NCI-H322M | 0.758 | 0.803 | 0.902 | 0.777 | 0.798 | 0.891 | 1.06 | 0.961 | 0.945 | 0.972 | 0.557 | 0.642 | 0.554 | 0.619 | 0.634 | 0.557 | 0.535 | 0.634 | 0.519 | 0.609 |
| NCI-H2347 | 0.308 | 0.342 | 0.531 | 0.729 | 0.361 | 1.05 | 0.84 | 0.932 | 0.994 | 0.895 | 0.882 | 0.842 | 1.09 | 0.922 | 0.958 | 0.528 | 0.356 | 0.387 | 0.322 | 0.336 |
| NCI-H1975 | 0.296 | 0.142 | 0.257 | 0.281 | 0.234 | 0.938 | 0.949 | 0.92 | 1.04 | 1.06 | 0.989 | 0.867 | 0.874 | 0.891 | 1.18 | 0.846 | 0.74 | 0.711 | 0.868 | 0.991 |
| ABC-1 | 0.495 | 0.47 | 0.668 | 0.564 | 0.785 | 1 | 0.698 | 0.959 | 0.759 | 0.879 | 0.987 | 1.09 | 1.13 | 1.43 | 1.23 | 0.469 | 0.501 | 0.467 | 0.417 | 0.631 |
| A-427 | 1.22 | 0.84 | 0.917 | 0.929 | 0.869 | 1.13 | 1.05 | 1.13 | 1.09 | 1.16 | 0.996 | 0.955 | 1.07 | 1.01 | 1.09 | 0.486 | 0.308 | 0.387 | 0.412 | 0.424 |
| LCLC-97TM1 | 0.876 | 0.833 | 0.787 | 0.768 | 0.867 | 0.2 | 0.189 | 0.215 | 0.172 | 0.173 | 0.926 | 1.27 | 0.928 | 1.1 | 1.03 | 0.614 | 0.465 | 0.569 | 0.563 | 0.622 |
